# From patent publication US20240423246A1, “RAPAMYCIN FOR INCREASED MILK PRODUCTION” (THE STATE OF ISRAEL, MINISTRY OF AGRICULTURE & RURAL …, priority 2023, published 2024)
# Columns and labels:
# [1] = test system: bovine mammary epithelial stem cell population; assay: Propagation rate of cultured cells from vehicle- and rapamycin-treated glands; format: cell-based
# Experimental: For propagation rate, cells from each treatment were seeded in 96-well cell-culture plates (Corning, Corning, NY) at a density of 10,000 cells/well and cultured in mammary medium composed of DMEM-F12 medium containing 5% FBS, hydrocortisone ([…], Sigma), insulin ([…], Sigma), gentamicin ([…], Biological Industries), streptomycin and penicillin ([…] and 100 U/ml, respectively), hEGF (10 ng/ml, Merck, Darmstadt, Germany), hFGF2 (10 ng/ml, Merck), heparin (4 mg/ml, Merck), cholera toxin (10 ng/ml, Sigma) and B27 ([…], Invitrogen, Carlsbad, CA) (10) for the indicated period.
# Rapamycin's effect on cell-propagation rate was analyzed in cultures from individual vehicle- and rapamycin-treated glands (FIG. 4A). This method produces a clear and significant distinction of the bovine mammary epithelial stem cell population from the more differentiated ones.
# [2] = test system: Notch1, Jagged1, Delta1, LGR4, LGR5; assay: Relative gene expression of stem cell markers in treated glands (real-time PCR); format: in vivo, bovine (Holstein calves); settings: 3 weeks skip-a-day rapamycin; not significant at P<0.05
# Experimental: FIG. 4A-4B: (FIG. 4A) Dispersed cells isolated from individual vehicle- and rapamycin-treated mammary glands were seeded in 96-well plates and cultured in mammary medium. At the indicated time points (arrows), cells were trypsinized, counted and reseeded. Inset: cell number at the end of the culture period. Bars represent mean±SEM. (FIG. 4B) Relative gene expression analysis of luminal progenitor marker (Stat5) and stem cell markers (Notch1, Jagged1, Delta1, LGR4, LGR5). N=4 for vehicle-treated and 3 for rapamycin-treated glands. Six wells of cells from each gland were analyzed.
# RNA was extracted from the parenchymal region of each mammary gland using TRIzol reagent and reverse-transcribed with the qScript Synthesis Kit (Quanta BioSciences, Beverly, MA). RNA quality and quantity were determined in a NanoDrop 1000 spectrophotometer (Thermo Fisher Scientific, Wilmington, DE). Quantitative real-time PCR analyses were performed in a StepOnePlus instrument (Applied Biosystems, Foster City, CA) in a […] reaction volume containing 1 μL cDNA, 5 μL PerfeCta SYBR Green FastMix, Rox (2X) (Quanta BioSciences) and 0.5 μL of the primers listed in Table 1. The thermal cycling conditions consisted of 20 s at 95° C. followed by 40 cycles of 3 s at 95° C. and 30 s at 60° C. […] Fold change (relative expression) was calculated using StepOne v2.1 and DataAssist v2.0 software (Applied Biosystems). […]
# [3] = target: T1, mammalian target of rapamycin (mTOR) (Bos taurus, UniProt E1BFB4); assay: S6 phosphorylation after 3 weeks of skip-a-day intramammary rapamycin administration (immunoblot); format: in vivo, bovine (Holstein calves)
# Experimental: (§1) Three-month-old female Holstein calves (˜90 kg body weight [BW]) that were raised on the Volcani Center's experimental farm were used in these experiments. During the experimental periods, each mammary gland was administered via the teat canal with 2 mL of vehicle, composed of sterile PBS containing 10% polyethylene glycol (Sigma, St. Louis, MO) and 10% Tween 80 (Sigma). In individual experiments, the vehicle was supplemented with Evans blue to analyze the penetration of this solution into the mammary epithelium, or with rapamycin to analyze its effect on cellular activities. […]
# Proteins from the parenchymal region of each mammary gland were extracted with RIPA buffer containing 10 mM Tris-HCl pH 7.5, 150 mM NaCl, 0.1% SDS, 1% sodium deoxycholate and 5 mM EDTA (Sigma), protease inhibitor cocktail and phosphatase inhibitor cocktail II (both from Sigma). Equal amounts of protein, determined by QPRO-BCA Kit Standard (Cyanagen, Bologna, Italy) according to the manufacturer's protocol, were subjected to SDS-PAGE. […] The expression levels of phosphorylated S6 (pS6) and β-actin were determined according to the signals generated with their respective antibodies. Signals were generated with WESTAR Supernova (Cyanagen, Bologna, Italy) combined with Super Signal chemiluminescent substrate (Thermo Fisher Scientific), and detected in a Syngene analyzer (Cambridge, UK).
# [4] = target: T1, mammalian target of rapamycin (mTOR); assay: S6 phosphorylation in mammary parenchyma after single intramammary rapamycin administration (immunoblot, immunohistochemistry); format: in vivo, bovine (Holstein calves)
# Experimental: (§2) Three-month-old female Holstein calves (˜90 kg body weight [BW]) that were raised on the Volcani Center's experimental farm were used in these experiments. During the experimental periods, each mammary gland was administered via the teat canal with 2 mL of vehicle, composed of sterile PBS containing 10% polyethylene glycol (Sigma, St. Louis, MO) and 10% Tween 80 (Sigma). In individual experiments, the vehicle was supplemented with Evans blue to analyze the penetration of this solution into the mammary epithelium, or with rapamycin to analyze its effect on cellular activities. The vehicle was administered using a sterile 22G IV cannula (Deltaven, Viadana, (MN) Italy), cut to ˜1.5 cm and inserted (without the needle) into the teat canal. […] In the relevant experiments, estrogen (0.1 mg/kg per day, Sigma) and progesterone (0.25 mg/kg per day, Sigma) were administered following the rapamycin treatment by daily subcutaneous injections for 4 consecutive days. The design of the studies was based on the distinct morphology and activity of the individual “quarters” (i.e., glands) of the bovine udder which can be individually affected. Thus, in studies analyzing the rapamycin effects, front or rear glands of each side of the calf served as internal controls for the other two rapamycin-administered glands. The dye Evans blue was added to one of the vehicle-treated glands to follow its penetration into the epithelial morphology in close and far regions from the teat (FIG. 1).
# Immunohistochemistry was performed on the 5-μm paraffin-embedded sections after antigen retrieval. The reaction with primary antibodies against β-casein (Barash lab), pS6 (Cell signaling Inc.), CK18 (GeneTex), and PCNA (BioLegend), was initiated by blocking the sections with 10% bovine serum albumen and 5% goat serum in 0.1% PBST for 1 h prior to overnight incubation with the first antibody at 4° C. Sections were washed and incubated with N-Histofine (Nichirei Biosciences, Tokyo, Japan) for 30 min at room temperature. Signals were generated with 3,3-diaminobenzidine (DAB) substrate (Vector Laboratories, Burlingame, CA).
# Proteins from the parenchymal region of each mammary gland were extracted with RIPA buffer containing 10 mM Tris-HCl pH 7.5, 150 mM NaCl, 0.1% SDS, 1% sodium deoxycholate and 5 mM EDTA (Sigma), protease inhibitor cocktail and phosphatase inhibitor cocktail II (both from Sigma). Equal amounts of protein, determined by QPRO-BCA Kit Standard (Cyanagen, Bologna, Italy) according to the manufacturer's protocol, were subjected to SDS-PAGE. Fractionated proteins were transferred to nitrocellulose filters and the uploading of equal amounts of protein per sample was confirmed by staining the blot with Ponceau S (Sigma). The expression levels of phosphorylated S6 (pS6) and β-actin were determined according to the signals generated with their respective antibodies. Signals were generated with WESTAR Supernova (Cyanagen, Bologna, Italy) combined with Super Signal chemiluminescent substrate (Thermo Fisher Scientific), and detected in a Syngene analyzer (Cambridge, UK).
# (§3) To determine an effective concentration and administration interval, mammalian target of rapamycin (mTOR) responsiveness to rapamycin administration was studied in parenchymal regions that were close to and far from the teat. Rapamycin was delivered to the parenchymatic region of two calves at two concentrations (4.16 or 8.32 mg/gland per day). The calves were sacrificed 24 h or 48 h later and the udders were removed. […] Note that complete repression of mTOR activity was avoided in these experiments to preserve the self-renewing capability of the epithelial stem cells.
# [5] = Mammary tissue morphology and pathology after intramammary rapamycin (H&E); format: in vivo, bovine (Holstein calves)
# Experimental: as §2
# Bovine mammary samples were fixed in Bouin's solution, dehydrated in a graded ethanol series (50% to 100%), cleared in xylene and embedded in paraffin. Paraffin sections (5 μm) were stained with hematoxylin and eosin (H&E; Sigma) to visualize the morphology of the mammary layers.
# as §3
# The effect of 3 weeks of skip-a-day rapamycin administration (8.32 mg/gland per day) on stem cell self-renewal (FIGS. 3A-3F) was examined.
# To study the effect of rapamycin administration and induced stem cell self-renewal on mammary cell proliferation and milk protein expression, front and rear mammary glands of three calves (six for each treatment) were infused with either vehicle or rapamycin for 3 weeks (8.3 mg/gland per day). […]
# mammary epithelial cells = assay: Mammary cell proliferation by PCNA staining after rapamycin followed by estrogen and progesterone; format: in vivo, bovine (Holstein calves); settings: 3 weeks 8.3 mg/gland per day, then estrogen and progesterone for 4 days
# Experimental: FIGS. 6A-6C: (FIG. 6A) lower and (FIG. 6B) higher magnifications of PCNA-stained parenchymal cells and counterstained with hematoxylin. S, small ducts; L, large ducts. Bar=50 μm. (FIG. 6C) PCNA+ cells were analyzed in total (left plot), basal (middle plot) and luminal cell (right plot) populations of the small and large ducts. Six independent microscopic fields (X10 magnification) from each of the six glands treated with vehicle and six glands treated with rapamycin were analyzed. Overall, 127 ducts and 10,619 cells, and 122 ducts and 9999 cells were analyzed in the vehicle-treated and rapamycin-treated glands, respectively. ** P<0.01, *** P<0.001.
# as §1, with “activities. The vehicle was administered using a sterile 22G IV cannula (Deltaven, Viadana, (MN) Italy), cut to ˜1.5 cm and inserted (without the needle) into the teat canal.” for “activities.”
# bovine mammary cell = settings: xanthosine administration; cited from earlier work
# [6] = 24 h after infusion, close to nipple, rapamycin 4.16 mg
# [7] = 24 h after infusion, close to nipple, rapamycin 8.32 mg
# [8] = 48 h after infusion, close to nipple, rapamycin 4.16 mg
# [9] = 48 h after infusion, close to nipple, rapamycin 8.32 mg
# [10] = 48 h after infusion, far from nipple, rapamycin 4.16 mg
# [11] = 48 h after infusion, far from nipple, rapamycin 8.32 mg
structure (smiles),measurement,setting,value
CO[C@H]1C[C@@H]2CC[C@@H](C)[C@@](O)(O2)C(=O)C(=O)N2CCCC[C@H]2C(=O)O[C@H]([C@H](C)C[C@@H]2CC[C@@H](O)[C@H](OC)C2)CC(=O)[C@H](C)/C=C(\C)[C@@H](O)[C@@H](OC)C(=O)[C@H](C)C[C@H](C)/C=C/C=C/C=C/1C [Rapamycin],"propagation rate difference, cultures from rapamycin-treated vs vehicle-treated gland",[1]; day 37 of culture,1.15 fold
same,"propagation rate difference, cultures from rapamycin-treated vs vehicle-treated gland",[1]; day 52 of culture,1.4 fold
same,"propagation rate difference, cultures from rapamycin-treated vs vehicle-treated gland",[1]; end of the culture period,2.6 fold
same,"stem cell marker gene expression, more than in vehicle-treated counterparts",[2],8-20%
same,decrease in S6 phosphorylation,"[3]; 3 weeks skip-a-day, 8.32 mg/gland per day, immunoblot 48 h after termination",53%
same,decrease in mTOR activity,"[3]; skip-a-day, 3-week intramammary administration",~50%
same,pS6/S6 relative to vehicle (100%),[4]; [6],(66%)
same,pS6/β-actin relative to vehicle (100%),[4]; [6],(75%)
same,pS6/S6 relative to vehicle (100%),[4]; [7],(95%)
same,pS6/β-actin relative to vehicle (100%),[4]; [7],(63%)
same,pS6/S6 relative to vehicle (100%),[4]; [8],(71%)
same,pS6/β-actin relative to vehicle (100%),[4]; [8],(64%)
same,pS6/S6 relative to vehicle (100%),[4]; [9],(76%)
same,pS6/β-actin relative to vehicle (100%),[4]; [9],(81%)
same,pS6/S6 relative to vehicle (100%),[4]; [10],(93%)
same,pS6/β-actin relative to vehicle (100%),[4]; [10],(68%)
same,pS6/S6 relative to vehicle (100%),[4]; [11],(48%)
same,pS6/β-actin relative to vehicle (100%),[4]; [11],(56%)
same,differences in morphology between vehicle- and rapamycin-treated glands,"[5]; 3 weeks 8.3 mg/gland per day, then estrogen and progesterone for 4 days",no apparent differences
same,effect on mammary gland morphology,"[5]; 3 weeks skip-a-day, 8.32 mg/gland per day",not associated with any detectable effect
same,effect on tissue morphology in the parenchymatic regions,"[5]; 4.16 or 8.32 mg/gland, 24 h or 48 h after administration",did not seem to have any effect
same,pathological consequences of the amount and methodology chosen,[5]; intramammary administration,did not have pathological consequences
same,increase in total number of PCNA+ cells,mammary epithelial cells,20%
O=c1[nH]c(=O)c2ncn([C@@H]3O[C@H](CO)[C@@H](O)[C@H]3O)c2[nH]1 [xanthosine],suppression of bovine mammary cell proliferation,bovine mammary cell,50%
